Laboratory results taken from US4908314A (priority 1987, dated 1990).

How the values were obtained:
[1] = target: protein C activator of the present invention (Agkistrodon contortrix contortrix, UniProt P09872); assay: biochemical; type: biochemical
[2] = tested on: protein C activator of the present invention; assay: biochemical; type: biochemical, Agkistrodon contortrix contortrix
Protac® = conditions: cited from earlier work
[3] = tested on: protein C activator of Klein et al; conditions: cited from earlier work
Factor VIIIa = target: T1, Factor VIIIa (Homo sapiens, UniProt P00451); assay: Inactivation of Factor VIIIa in vitro; type: biochemical; conditions: picomolar concentrations
T1 sequence (P00451 20-391 limits assumed): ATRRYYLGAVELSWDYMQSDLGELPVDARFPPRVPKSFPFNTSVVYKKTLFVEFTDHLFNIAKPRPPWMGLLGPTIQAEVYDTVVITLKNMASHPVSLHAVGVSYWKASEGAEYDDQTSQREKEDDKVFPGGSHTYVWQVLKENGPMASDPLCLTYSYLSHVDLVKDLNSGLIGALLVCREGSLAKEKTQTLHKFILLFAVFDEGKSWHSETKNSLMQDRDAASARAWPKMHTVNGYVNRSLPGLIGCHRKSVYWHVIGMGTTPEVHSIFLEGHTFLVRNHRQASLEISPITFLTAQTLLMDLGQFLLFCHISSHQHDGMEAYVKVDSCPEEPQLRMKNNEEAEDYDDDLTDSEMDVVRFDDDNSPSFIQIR
T1 sequence (P00451 392-759 limits assumed): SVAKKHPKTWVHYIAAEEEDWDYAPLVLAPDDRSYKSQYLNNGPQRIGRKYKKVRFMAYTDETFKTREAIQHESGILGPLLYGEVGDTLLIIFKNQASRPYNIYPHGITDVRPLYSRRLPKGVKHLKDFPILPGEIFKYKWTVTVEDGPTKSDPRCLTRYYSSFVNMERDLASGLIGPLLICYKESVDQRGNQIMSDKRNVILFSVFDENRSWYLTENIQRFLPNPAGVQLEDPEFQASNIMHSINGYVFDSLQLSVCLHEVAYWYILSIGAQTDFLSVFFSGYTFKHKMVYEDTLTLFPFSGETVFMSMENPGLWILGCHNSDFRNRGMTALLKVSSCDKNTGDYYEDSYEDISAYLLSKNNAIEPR
T1 sequence (P00451 1709-2351 limits assumed): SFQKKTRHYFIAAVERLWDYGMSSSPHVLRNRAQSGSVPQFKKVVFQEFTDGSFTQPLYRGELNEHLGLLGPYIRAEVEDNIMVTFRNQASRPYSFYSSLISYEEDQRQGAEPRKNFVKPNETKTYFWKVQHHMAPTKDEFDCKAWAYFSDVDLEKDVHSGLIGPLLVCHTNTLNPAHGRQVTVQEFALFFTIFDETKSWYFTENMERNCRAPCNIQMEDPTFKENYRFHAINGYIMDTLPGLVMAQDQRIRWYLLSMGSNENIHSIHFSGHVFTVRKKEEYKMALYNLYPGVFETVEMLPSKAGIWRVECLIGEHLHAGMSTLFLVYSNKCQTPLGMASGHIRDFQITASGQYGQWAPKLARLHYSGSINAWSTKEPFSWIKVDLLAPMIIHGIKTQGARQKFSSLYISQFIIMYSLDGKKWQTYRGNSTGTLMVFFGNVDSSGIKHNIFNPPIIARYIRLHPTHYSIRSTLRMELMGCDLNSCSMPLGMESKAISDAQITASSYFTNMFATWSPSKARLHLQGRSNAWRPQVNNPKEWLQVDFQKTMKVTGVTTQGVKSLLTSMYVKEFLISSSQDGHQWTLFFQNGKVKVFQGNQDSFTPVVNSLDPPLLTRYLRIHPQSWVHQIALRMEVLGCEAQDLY

[4] = Amidolysis of chromogenic substrates; type: biochemical
[5] = tested on: plasminogen activator inhibitor (PAI); assay: Neutralization of plasminogen activator inhibitor activity in vitro; type: biochemical

Sequence of protein C activator of the present invention (Agkistrodon contortrix contortrix, UniProt P09872) (P09872 whole entry, looked up): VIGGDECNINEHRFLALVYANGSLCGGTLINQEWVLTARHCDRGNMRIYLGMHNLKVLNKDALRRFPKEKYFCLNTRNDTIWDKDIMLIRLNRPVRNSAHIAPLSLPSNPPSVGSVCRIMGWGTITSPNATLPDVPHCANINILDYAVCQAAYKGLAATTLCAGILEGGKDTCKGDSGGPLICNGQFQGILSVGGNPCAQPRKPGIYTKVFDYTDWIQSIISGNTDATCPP

NC(N)=NCCC[C@H](NC(=O)[C@@H]1CCCN1C(=O)[C@H](N)Cc1ccccc1)C(=O)CCl [D-Phe-Pro-Arg-chloromethylketone]
Inhibition of activity of the activator by serine protease inhibitors [1]: inhibited
Ki [1]: 34 µM
fold higher Ki than the Ki of thrombin inhibition [2]: approximately 500 fold

NC(=O)CI [iodoacetamide]
Inhibition of activity of Protac (Protac®): not inhibited

N=C(N)Nc1ccc(C(=O)Oc2ccc([N+](=O)[O-])cc2)cc1 [p-nitrophenyl, p-guanidinobenzoate]
Inhibition of activity of the activator by serine protease inhibitors [1]: inhibited

O=S(=O)(F)Cc1ccccc1 [phenylmethylsulphonylfluoride]
Inhibition of activity of the activator by serine protease inhibitors [1]: inhibited

Antithrombin III
Inhibition of activity of the Klein et al activator [3]: no effect

activated protein C
inactivation of Factor VIIIa (Factor VIIIa): rapid inactivation
activity of amidolysis of chromogenic substrates compared with thrombin-activated protein C [4]: approximately the same activity
neutralization of PAI activity [5]: neutralization

B1: soybean trypsin inhibitor: serine protease inhibitor protein (protein, UniProt P01070 25-205, looked up)
Trypsin inhibitor A: DFVLDNEGNPLENGGTYYILSDITAFGGIRAAPTGNERCPLTVVQSRNELDKGIGTIISSPYRIRFIAEGHPLSLKFDSFAVIMLCVGIPTEWSVVEDLPEGPAVKIGENKDAMDGWFRLERVSDDEFNNYKLVFCPQQAEDDKCGDIGISIDHDDGTRRLVVSKNKPLVVQFQKLDKESL
Inhibition of activity of the Klein et al activator [3]: inhibited
Inhibition of activity of the activator by serine protease inhibitors [1]: inhibited
